The record followed here is US12371428B2 (Exelixis, Inc., priority 2019, dated 2025).

Holding throughout (type): cell-based
Experiment [1] deals with Met (phospho-Met, HGF-stimulated PC-3 prostate cancer cells) (Homo sapiens (Human), UniProt P08581). As to the kind of experiment: Met autophosphorylation ELISA in PC-3 cells (Example F). Conditions: cellular activity; Met autophosphorylation ELISA in PC-3 cells; read-out: c-Met IC50. The essentials:
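Sandwich ELISA for phospho-Met (panTyr) in PC-3 lysates. Cells starved 3 h serum-free, compound 1 h (8-pt curve, 0.3% DMSO), HGF 100 ng/mL 10 min. 100% = HGF + DMSO; 0% = HGF + reference inhibitor. IC50 by 4-parameter fit.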

Experiment [2] concerns the target KDR (phospho-KDR, VEGF165-stimulated HUVEC cells) (Homo sapiens (Human), UniProt P35968). As to the kind of experiment: KDR autophosphorylation ELISA in HUVEC cells (Example G). Conditions: cellular activity; KDR autophosphorylation ELISA in HUVEC cells. In short, it runs like this:
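HUVECs were serum-starved 24 h, given compound as an 8-point dilution series (0.3% DMSO final) for 1 h, then stimulated with 100 ng/mL VEGF165 for 5 min. Lysate phospho-KDR was quantified by sandwich ELISA against a phospho-KDR standard, and IC50s came from a 4-parameter logistic fit.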

The target in experiment [3] is Mer (phospho-Mer, MERTK-transfected 293A cells) (Homo sapiens (Human), UniProt Q12866). As to the kind of experiment: Mer autophosphorylation ELISA in transient transfected 293A cells (Example H). Conditions: cellular activity; Mer autophosphorylation ELISA in transient transfected 293A cells. The essentials: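 Inhibition of cellular Mer autophosphorylation is determined in 293A cells transiently expressing human MERTK after 1 h compound exposure (8 concentrations, serum-free, 0.3% DMSO). Phospho-Mer in clarified lysates is measured by ELISA, with DMSO and reference-inhibitor wells defining the 100% and 0% activity limits.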
Mer (phospho-Mer, MERTK-transfected 293A cells), sequence (Q12866 21-999): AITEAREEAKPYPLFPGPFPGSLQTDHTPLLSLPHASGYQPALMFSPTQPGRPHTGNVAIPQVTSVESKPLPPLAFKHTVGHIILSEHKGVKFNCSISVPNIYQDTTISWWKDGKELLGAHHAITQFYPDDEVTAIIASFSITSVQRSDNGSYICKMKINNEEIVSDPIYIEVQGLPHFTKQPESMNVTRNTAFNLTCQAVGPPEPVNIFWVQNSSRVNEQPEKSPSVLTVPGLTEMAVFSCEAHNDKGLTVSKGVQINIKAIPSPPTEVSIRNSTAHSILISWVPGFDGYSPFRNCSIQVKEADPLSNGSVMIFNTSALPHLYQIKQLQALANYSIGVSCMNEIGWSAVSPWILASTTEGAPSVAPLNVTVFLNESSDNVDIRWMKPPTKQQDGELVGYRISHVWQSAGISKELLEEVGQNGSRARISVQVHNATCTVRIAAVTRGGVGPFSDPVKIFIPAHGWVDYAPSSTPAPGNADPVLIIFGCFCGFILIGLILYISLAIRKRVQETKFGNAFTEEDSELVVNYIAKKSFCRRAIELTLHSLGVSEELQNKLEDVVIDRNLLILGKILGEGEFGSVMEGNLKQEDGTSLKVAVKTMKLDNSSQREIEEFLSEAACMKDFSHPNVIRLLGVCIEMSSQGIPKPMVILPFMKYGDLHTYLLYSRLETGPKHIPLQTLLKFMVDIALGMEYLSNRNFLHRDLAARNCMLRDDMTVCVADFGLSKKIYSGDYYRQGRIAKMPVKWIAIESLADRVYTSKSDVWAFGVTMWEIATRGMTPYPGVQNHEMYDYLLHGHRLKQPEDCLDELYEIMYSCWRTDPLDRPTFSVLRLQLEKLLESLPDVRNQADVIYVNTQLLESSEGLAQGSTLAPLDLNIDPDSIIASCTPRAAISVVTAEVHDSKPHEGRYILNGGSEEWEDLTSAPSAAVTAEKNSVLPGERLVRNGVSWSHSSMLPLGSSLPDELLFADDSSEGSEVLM

Molecules are shown by their SMILES. A value given as a limit tells only on which side of the number the result lay.

KDR (phospho-KDR, VEGF165-stimulated HUVEC cells), sequence (P35968 20-1356): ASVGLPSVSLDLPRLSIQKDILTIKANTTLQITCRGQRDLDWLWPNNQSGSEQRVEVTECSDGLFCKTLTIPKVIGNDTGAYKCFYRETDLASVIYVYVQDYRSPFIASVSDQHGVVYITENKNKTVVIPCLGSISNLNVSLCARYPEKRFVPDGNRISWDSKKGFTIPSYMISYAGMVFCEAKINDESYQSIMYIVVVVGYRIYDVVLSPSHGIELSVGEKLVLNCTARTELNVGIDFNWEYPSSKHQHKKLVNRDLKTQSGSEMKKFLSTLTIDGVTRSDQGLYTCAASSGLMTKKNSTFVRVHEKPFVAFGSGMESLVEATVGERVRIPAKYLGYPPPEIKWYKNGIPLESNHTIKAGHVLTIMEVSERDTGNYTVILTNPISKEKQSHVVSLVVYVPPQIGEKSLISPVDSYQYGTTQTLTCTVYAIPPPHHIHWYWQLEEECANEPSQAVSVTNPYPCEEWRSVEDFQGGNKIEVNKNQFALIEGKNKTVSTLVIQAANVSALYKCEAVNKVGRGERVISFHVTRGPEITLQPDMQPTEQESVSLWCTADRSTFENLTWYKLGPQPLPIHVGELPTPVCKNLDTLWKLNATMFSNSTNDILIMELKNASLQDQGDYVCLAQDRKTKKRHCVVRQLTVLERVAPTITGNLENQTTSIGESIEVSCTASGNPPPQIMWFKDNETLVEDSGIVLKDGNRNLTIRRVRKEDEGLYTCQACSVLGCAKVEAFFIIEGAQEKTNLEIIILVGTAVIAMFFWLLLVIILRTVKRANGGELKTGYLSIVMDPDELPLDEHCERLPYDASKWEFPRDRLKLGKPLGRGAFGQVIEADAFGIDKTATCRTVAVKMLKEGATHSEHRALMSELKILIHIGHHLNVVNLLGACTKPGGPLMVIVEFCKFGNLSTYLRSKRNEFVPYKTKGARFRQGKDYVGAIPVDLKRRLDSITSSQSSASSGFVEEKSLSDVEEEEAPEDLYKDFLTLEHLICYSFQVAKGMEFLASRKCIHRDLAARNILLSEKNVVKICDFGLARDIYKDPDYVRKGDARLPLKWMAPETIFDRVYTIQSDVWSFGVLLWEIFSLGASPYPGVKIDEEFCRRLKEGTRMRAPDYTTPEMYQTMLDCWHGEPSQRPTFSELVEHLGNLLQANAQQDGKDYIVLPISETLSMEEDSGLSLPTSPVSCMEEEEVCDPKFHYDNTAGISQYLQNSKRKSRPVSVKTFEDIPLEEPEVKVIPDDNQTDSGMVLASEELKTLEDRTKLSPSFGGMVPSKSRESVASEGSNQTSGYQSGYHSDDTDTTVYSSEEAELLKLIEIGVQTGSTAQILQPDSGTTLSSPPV
Met (phospho-Met, HGF-stimulated PC-3 prostate cancer cells), sequence (P08581 25-1390): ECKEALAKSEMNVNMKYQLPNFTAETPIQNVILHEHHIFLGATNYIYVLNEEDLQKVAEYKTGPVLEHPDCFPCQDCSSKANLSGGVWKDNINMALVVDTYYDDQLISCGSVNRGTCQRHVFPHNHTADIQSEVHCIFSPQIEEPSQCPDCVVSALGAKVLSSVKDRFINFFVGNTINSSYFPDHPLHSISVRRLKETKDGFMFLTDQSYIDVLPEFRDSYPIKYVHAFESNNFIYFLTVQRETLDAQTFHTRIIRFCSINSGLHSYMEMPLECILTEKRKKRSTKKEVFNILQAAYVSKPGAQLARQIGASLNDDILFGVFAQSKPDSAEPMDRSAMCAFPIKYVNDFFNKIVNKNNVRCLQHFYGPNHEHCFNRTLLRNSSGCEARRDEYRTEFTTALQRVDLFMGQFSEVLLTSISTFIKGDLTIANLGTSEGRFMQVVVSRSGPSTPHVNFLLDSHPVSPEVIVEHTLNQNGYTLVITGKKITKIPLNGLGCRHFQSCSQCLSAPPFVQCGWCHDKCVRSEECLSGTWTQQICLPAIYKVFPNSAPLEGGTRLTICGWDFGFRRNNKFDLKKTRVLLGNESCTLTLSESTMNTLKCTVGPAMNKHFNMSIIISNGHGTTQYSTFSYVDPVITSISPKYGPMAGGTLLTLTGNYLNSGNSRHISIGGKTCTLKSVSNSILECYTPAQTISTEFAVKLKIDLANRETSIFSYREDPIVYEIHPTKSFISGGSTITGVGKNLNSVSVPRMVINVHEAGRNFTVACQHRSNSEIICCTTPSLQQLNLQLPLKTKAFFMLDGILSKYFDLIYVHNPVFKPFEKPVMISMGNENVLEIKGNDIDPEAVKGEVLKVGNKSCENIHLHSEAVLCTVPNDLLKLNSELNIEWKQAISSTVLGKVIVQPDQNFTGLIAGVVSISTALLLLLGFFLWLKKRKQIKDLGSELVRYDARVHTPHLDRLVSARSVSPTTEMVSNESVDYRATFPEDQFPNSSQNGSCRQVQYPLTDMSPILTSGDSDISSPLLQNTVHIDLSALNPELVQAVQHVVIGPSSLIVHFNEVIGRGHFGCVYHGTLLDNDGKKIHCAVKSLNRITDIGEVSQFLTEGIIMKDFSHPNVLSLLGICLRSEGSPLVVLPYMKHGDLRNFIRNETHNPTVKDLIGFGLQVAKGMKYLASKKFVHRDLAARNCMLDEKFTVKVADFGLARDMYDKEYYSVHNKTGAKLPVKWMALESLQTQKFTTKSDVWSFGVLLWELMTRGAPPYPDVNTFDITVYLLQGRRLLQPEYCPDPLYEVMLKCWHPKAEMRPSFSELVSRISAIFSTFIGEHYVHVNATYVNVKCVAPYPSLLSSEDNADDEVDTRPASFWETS

For `COc1cnc2c(Oc3ccc(NC(=O)c4c(C)cc(C)n(-c5ccc(F)cc5)c4=O)cc3F)ccnc2c1` [Compound 280, N-[3-Fluoro-4-[(7-methoxy-1,5-naphthyridin-4-yl)oxy]phenyl]-1-(4-fluorophenyl)-4,6-dimethyl-2-oxopyridine-3-carboxamide], the IC50 in experiment [1], in experiment [2] and in experiment [3] was below 0.1 µM throughout.
`COc1ccc2nccc(Oc3ccc(NC(=O)c4c(C)cc(C)n(-c5ccc(F)cc5)c4=O)cc3F)c2n1` [Compound 281, N-[3-Fluoro-4-[(6-methoxy-1,5-naphthyridin-4-yl)oxy]phenyl]-1-(4-fluorophenyl)-4,6-dimethyl-2-oxopyridine-3-carboxamide]: the IC50 in experiment [1], in experiment [2] and in experiment [3] was below 0.1 µM in each case.
In the case of `COc1cc2nccc(Oc3ccc(NC(=O)c4cn(C)c(CO)c(-c5ccc(F)cc5C)c4=O)cc3F)c2nc1OC` [Compound 282, N-[4-[(6,7-Dimethoxy-1,5-naphthyridin-4-yl)oxy]-3-fluorophenyl]-5-(4-fluoro-2-methylphenyl)-6-(hydroxymethyl)-1-methyl-4-oxopyridine-3-carboxamide], the IC50 in experiment [1], in experiment [2] and in experiment [3] was below 0.1 µM throughout.
Take `CCn1cc(C(=O)Nc2ccc(Oc3ccnc4cc(OC)c(OC)nc34)c(F)c2)c(=O)c(-c2ccc(F)cc2C)c1CO` [Compound 283, N-[4-[(6,7-Dimethoxy-1,5-naphthyridin-4-yl)oxy]-3-fluorophenyl]-1-ethyl-5-(4-fluoro-2-methylphenyl)-6-(hydroxymethyl)-4-oxopyridine-3-carboxamide]: the IC50 is below 0.1 µM in experiment [1], 0.1 to 0.3 µM in experiment [2] and below 0.1 µM in experiment [3].
In the case of `CCn1cc(C(=O)Nc2ccc(Oc3ccnc4cc(OC)c(OC)nc34)cc2)c(=O)c(-c2ccc(F)cc2C)c1CO` [Compound 284, N-[4-[(6,7-Dimethoxy-1,5-naphthyridin-4-yl)oxy]phenyl]-1-ethyl-5-(4-fluoro-2-methylphenyl)-6-(hydroxymethyl)-4-oxopyridine-3-carboxamide], the IC50 is below 0.1 µM in experiment [1], above 0.3 µM in experiment [2] and below 0.1 µM in experiment [3].
In the case of `CCn1cc(C(=O)Nc2ccc(Oc3ccnc4cc(OC)cnc34)c(F)c2)c(=O)c(-c2ccc(F)cc2C)c1CO` [Compound 285, 1-Ethyl-N-[3-fluoro-4-[(7-methoxy-1,5-naphthyridin-4-yl)oxy]phenyl]-5-(4-fluoro-2-methylphenyl)-6-(hydroxymethyl)-4-oxopyridine-3-carboxamide], the IC50 in experiment [1] was below 0.1 µM; in experiment [2], above 0.3 µM; in experiment [3], below 0.1 µM.
With `COc1cc2nccc(Oc3ccc(NC(=O)c4c(C)ccn(-c5ccc(F)cc5)c4=O)cc3F)c2nc1OC` [Compound 286, N-[4-[(6,7-Dimethoxy-1,5-naphthyridin-4-yl)oxy]-3-fluorophenyl]-1-(4-fluorophenyl)-4-methyl-2-oxopyridine-3-carboxamide], the IC50 in experiment [1], in experiment [2] and in experiment [3] was below 0.1 µM throughout.
Turning to `COc1ccc2nccc(Oc3ccc(NC(=O)c4c(C)ccn(-c5ccc(F)cc5)c4=O)cc3F)c2n1` [Compound 287, N-[3-Fluoro-4-[(6-methoxy-1,5-naphthyridin-4-yl)oxy]phenyl]-1-(4-fluorophenyl)-4-methyl-2-oxopyridine-3-carboxamide], the IC50 in experiment [1], in experiment [2] and in experiment [3] was below 0.1 µM each time.
For `COc1cc2nccc(Oc3ccc(NC(=O)c4c(C)cc(C)n(-c5ccc(F)cc5)c4=O)cc3)c2nc1OC` [Compound 288, N-[4-[(6,7-Dimethoxy-1,5-naphthyridin-4-yl)oxy]phenyl]-1-(4-fluorophenyl)-4,6-dimethyl-2-oxopyridine-3-carboxamide], the IC50 in experiment [1], in experiment [2] and in experiment [3] was below 0.1 µM each time.
`COc1cnc2c(Oc3ccc(NC(=O)c4c(C)cc(C)n(-c5ccc(F)cc5)c4=O)cc3)ccnc2c1` [Compound 289, 1-(4-Fluorophenyl)-N-[4-[(7-methoxy-1,5-naphthyridin-4-yl)oxy]phenyl]-4,6-dimethyl-2-oxopyridine-3-carboxamide]: the IC50 in experiment [1], in experiment [2] and in experiment [3] was below 0.1 µM each time.
In the case of `COc1ccc2nccc(Oc3ccc(NC(=O)c4c(C)cc(C)n(-c5ccc(F)cc5)c4=O)cc3)c2n1` [Compound 290, 1-(4-Fluorophenyl)-N-[4-[(6-methoxy-1,5-naphthyridin-4-yl)oxy]phenyl]-4,6-dimethyl-2-oxopyridine-3-carboxamide], the IC50 in experiment [1], in experiment [2] and in experiment [3] was below 0.1 µM throughout.
`COc1cnc2c(Oc3ccc(NC(=O)c4cccn(-c5ccc(F)cc5)c4=O)cc3F)ccnc2c1` [Compound 291, N-[3-Fluoro-4-[(7-methoxy-1,5-naphthyridin-4-yl)oxy]phenyl]-1-(4-fluorophenyl)-2-oxopyridine-3-carboxamide]: the IC50 in experiment [1], in experiment [2] and in experiment [3] was below 0.1 µM each time.
Consider `COc1ccc2nccc(Oc3ccc(NC(=O)c4cccn(-c5ccc(F)cc5)c4=O)cc3F)c2n1` [Compound 292, N-[3-Fluoro-4-[(6-methoxy-1,5-naphthyridin-4-yl)oxy]phenyl]-1-(4-fluorophenyl)-2-oxopyridine-3-carboxamide], for which the IC50 in experiment [1], in experiment [2] and in experiment [3] was below 0.1 µM in each case.
Consider `COc1cc2nccc(Oc3ccc(NC(=O)c4cccn(-c5ccc(F)cc5)c4=O)cc3F)c2nc1OC` [Compound 293, N-[4-[(6,7-Dimethoxy-1,5-naphthyridin-4-yl)oxy]-3-fluorophenyl]-1-(4-fluorophenyl)-2-oxopyridine-3-carboxamide], for which the IC50 in experiment [1], in experiment [2] and in experiment [3] was below 0.1 µM each time.
Take `COc1cnc2c(Oc3ccc(NC(=O)c4c(C)ccn(-c5ccc(F)cc5)c4=O)cc3F)ccnc2c1` [Compound 294, N-[3-Fluoro-4-[(7-methoxy-1,5-naphthyridin-4-yl)oxy]phenyl]-1-(4-fluorophenyl)-4-methyl-2-oxopyridine-3-carboxamide]: the IC50 in experiment [1], in experiment [2] and in experiment [3] was below 0.1 µM throughout.
On to `Cc1cc(C)n(-c2ccc(F)cc2)c(=O)c1C(=O)Nc1ccc(Oc2ccnc3cccnc23)c(F)c1` [Compound 295, N-[3-Fluoro-4-(1,5-naphthyridin-4-yloxy)phenyl]-1-(4-fluorophenyl)-4,6-dimethyl-2-oxopyridine-3-carboxamide], for which the IC50 in experiment [1], in experiment [2] and in experiment [3] was below 0.1 µM each time.
Take `COc1ccc2nccc(Oc3ccc(NC(=O)c4c(C)cc(C)n(-c5ccc(F)cc5C)c4=O)cc3F)c2n1` [Compound 296, N-[3-Fluoro-4-[(6-methoxy-1,5-naphthyridin-4-yl)oxy]phenyl]-1-(4-fluoro-2-methylphenyl)-4,6-dimethyl-2-oxopyridine-3-carboxamide]: the IC50 in experiment [1], in experiment [2] and in experiment [3] was below 0.1 µM in each case.
Take `Cc1ccc2nccc(Oc3ccc(NC(=O)c4c(C)cc(C)n(-c5ccc(F)cc5)c4=O)cc3F)c2n1` [Compound 297, N-[3-Fluoro-4-[(6-methyl-1,5-naphthyridin-4-yl)oxy]phenyl]-1-(4-fluorophenyl)-4,6-dimethyl-2-oxopyridine-3-carboxamide]: the IC50 in experiment [1], in experiment [2] and in experiment [3] was below 0.1 µM in each case.
Take `COc1cc2nccc(Oc3ccc(NC(=O)c4c(C)cc(C)n(-c5ccc(F)cc5C)c4=O)cc3F)c2nc1OC` [Compound 298, N-[4-[(6,7-Dimethoxy-1,5-naphthyridin-4-yl)oxy]-3-fluorophenyl]-1-(4-fluoro-2-methylphenyl)-4,6-dimethyl-2-oxopyridine-3-carboxamide]: the IC50 in experiment [1], in experiment [2] and in experiment [3] was below 0.1 µM in each case.
With `COc1cc2nccc(Oc3ccc(NC(=O)c4c(C)ccn(-c5ccc(F)cc5)c4=O)cc3)c2nc1OC` [Compound 299, N-[4-[(6,7-Dimethoxy-1,5-naphthyridin-4-yl)oxy]phenyl]-1-(4-fluorophenyl)-4-methyl-2-oxopyridine-3-carboxamide], the IC50 in experiment [1], in experiment [2] and in experiment [3] was below 0.1 µM each time.
For the molecule `COc1cnc2c(Oc3ccc(NC(=O)c4c(C)ccn(-c5ccc(F)cc5)c4=O)cc3)ccnc2c1` [Compound 300, 1-(4-Fluorophenyl)-N-[4-[(7-methoxy-1,5-naphthyridin-4-yl)oxy]phenyl]-4-methyl-2-oxopyridine-3-carboxamide], the IC50 in experiment [1], in experiment [2] and in experiment [3] was below 0.1 µM throughout.
